Data published in paper PMC12693167, “Design, Synthesis and Anticancer Activity of 6-Substituted-1-(3,4,5-trimethoxyphenyl)-1H-indole Against Tubulin Polymerisation” (Molecules, 2025).
“And” between values parts separate entries of the source, which are not always exact repeats. Equal entries are not always repeated.

Columns and labels:
A375 cells = experiment: CCK-8 antiproliferative assay, A375; assay type: cell-based; settings: Homo sapiens, A-375; cell viability (CCK-8), 48 h
Method: (§1) To evaluate the anticancer potential of the synthesized compounds, a panel of six human and murine cancer cell lines representing different tissue origins was selected, including MCF-7 (human breast adenocarcinoma), MDA-MB-231 (human triple-negative breast cancer), A549 (human non-small cell lung cancer), HeLa (human cervical cancer), A375 (human melanoma), and B16-F10 (murine melanoma) (Table 2). […] DMSO was used as the vehicle control, and all experiments were performed in triplicate to ensure reproducibility.
(§2) Human breast cancer cells (MCF-7), human lung cancer cells (A549), human cervical cancer cells (HeLa), human triple-negative breast cancer cells (MDA-MB-231), and human malignant melanoma cells (A375) were cultured in DMEM. Mouse melanoma cells (B16F10) were maintained in RPMI-1640 medium. All media were supplemented with 10% fetal bovine serum and 1% penicillin-streptomycin (Life Technologies, Carlsbad, CA, USA) and maintained at 37 °C in a humidified atmosphere with 5% CO2.
(§3) The cytotoxicity of the test compounds was evaluated against MCF-7, A549, HeLa, MDA-MB-231, A375, and B16F10 using the CCK-8 assay. Cells were seeded into 96-well plates at a density of 5000 cells/well. After removing the medium, 100 μL of medium with 0.1% DMSO containing test compounds at different concentrations was added to each well and incubated at 37 °C for another 48 h. The CCK-8 solution was added and incubated for another 1 h, and then, the absorbance was detected with a microplate reader at a wavelength of 450 nm. The IC50 values were calculated by nonlinear regression analysis using GraphPad Prism 8.0.2. All the experiments were repeated at least three times.

[1] = tested on: microtubule network in MCF-7 cells; experiment: Immunofluorescence staining of microtubules; assay type: cell-based, human; settings: 0.1, 1 and 10 μM, 24 h
Method: Given the potent in vitro antiproliferative activity of compound 3g, its effects on microtubule organization were further investigated using immunofluorescence staining in MCF-7 cells. […] The network appeared disassembled and fragmented in a dose-dependent manner, indicating significant cytoskeletal destabilization.
MCF-7 cells were seeded on glass coverslips in 24-well plates and then treated with vehicle control 0.1% DMSO, 3g (0.1, 1, 10 μM) for 24 h. The cells were fixed with 4% paraformaldehyde and then permeabilized with PBS containing 0.2% Triton X-100. After blocking for 30 min by adding 100 μL of goat serum albumin at room temperature, cells were incubated with a β-tubulin polyclonal antibody (Proteintech, Wuhan Sanying Biotechnology, Wuhan, China, Cat# 10094-1-AP, 1:500 dilution) at 37 °C for 12 h. Then, the cells were washed three times with PBS and incubated with a secondary antibody (Beyotime, Shanghai, China, Cat# A0516, 1:500 dilution) for 1 h at room temperature. Nuclei were labeled with 4,6-diamidino-2-phenylindole (DAPI). Cells were finally visualized using a fluorescence microscope (Nikon TI2-E+A1R, Nikon Corporation, Tokyo, Japan).
Figure 5 Effects of compound 3g on microtubules. MCF-7 cells were treated with vehicle control 0.1% DMSO, compound 3g (0.1μM, 1μM, and 10 μM for 24 h). […]

[2] = tested on: B16F10 melanoma tumors in BALB/c mice; experiment: In vivo antitumor efficacy, subcutaneous B16-F10 melanoma model; design: species or system mouse; settings: 14 days, from tumor weight
Method: The in vivo antitumor activity of compound 3g was evaluated using a mouse melanoma tumor model in BALB/c mice. Tumors were established by subcutaneous inoculation of B16F10 cells, and treatment was initiated when tumors reached a measurable size. Mice were administered vehicle control, paclitaxel (PTX, 10 mg/kg), or compound 3g (20 and 50 mg/kg) via intraperitoneal injection once daily for 14 consecutive days.
All animal procedures were approved by the Animal Ethics Committee of the Naval Medical University (permit number: EC11-055). Male BALB/c mice (6–8 weeks old, average initial body weight approximately 18–20 g) were purchased from Shanghai SLAC Laboratory Animal Co., Ltd. The inhibitory effect of compound 3g was evaluated using a subcutaneous B16-F10 melanoma xenograft model. Log-phase B16F10 cells were suspended in PBS and subcutaneously injected into mice (200 μL containing 8 × 10^5 cells per mouse) to establish tumors. Mice were randomly divided into control and treatment groups (n = 8). Compound 3g and paclitaxel were dissolved in a vehicle consisting of DMSO:PEG:Tween-80:saline (v/v/v/v, 5:35:10:50) to the desired concentrations. Treatments (paclitaxel, 10 mg/kg; compound 3g, 20 and 50 mg/kg, doses calculated on a body-weight basis) and vehicle were administered once daily via intraperitoneal injection for 14 consecutive days. Body weights were monitored throughout the study to assess acute toxicity. Tumor volumes were measured using calipers and calculated with the formula: a × b^2 × 0.5, where a and b represent the larger and smaller tumor diameters, respectively. On day 14, mice were sacrificed and tumors were excised and weighed. […] Major organs (liver and kidneys) were collected, fixed in 4% paraformaldehyde, processed into paraffin sections, stained with hematoxylin and eosin (H&E), and examined microscopically.
Murine melanoma B16-F10 xenograft tumors were established in mice, which were then administered vehicle, PTX (10 mg/kg per day), compound 3g (20 mg/kg per day), and compound 3g (50 mg/kg per day) for 14 days. […]

[3] = biological target: T1, Porcine brain tubulin protein (Sus scrofa, UniProt P02554); experiment: In vitro tubulin polymerization assay; assay type: biochemical
T1 construct: Porcine brain tubulin protein was dissolved in EM buffer; from tissue; host or cells: porcine brain
Method: The ability of compound 3g to disrupt microtubule dynamics was assessed using an in vitro tubulin polymerization assay.
Porcine brain tubulin protein was dissolved in EM buffer containing 5% glycerol (80 mM PIPES, 2 mM GTP, 2 mM MgCl2, and 0.5 mM EGTA, pH 6.9). Compounds were diluted in EM buffer to final concentrations of 50, 25, 10, 5, and 2.5 μM and added to a pre-warmed 384-well plate, followed by pre-incubation at 37 °C. Subsequently, 14 μL of the tubulin-GTP mixture was added to each well containing the test compounds. Tubulin polymerization was monitored by measuring absorbance at 340 nm every minute for 60 min. […] Each assay was performed in triplicate.
Absorbance at 340 nm was determined every 1 min.

HeLa cells = experiment: CCK-8 antiproliferative assay, HeLa; assay type: cell-based; settings: Homo sapiens, cell viability (CCK-8), 48 h
Method: as §1, §2, §3

T1 sequence (P02554 whole entry): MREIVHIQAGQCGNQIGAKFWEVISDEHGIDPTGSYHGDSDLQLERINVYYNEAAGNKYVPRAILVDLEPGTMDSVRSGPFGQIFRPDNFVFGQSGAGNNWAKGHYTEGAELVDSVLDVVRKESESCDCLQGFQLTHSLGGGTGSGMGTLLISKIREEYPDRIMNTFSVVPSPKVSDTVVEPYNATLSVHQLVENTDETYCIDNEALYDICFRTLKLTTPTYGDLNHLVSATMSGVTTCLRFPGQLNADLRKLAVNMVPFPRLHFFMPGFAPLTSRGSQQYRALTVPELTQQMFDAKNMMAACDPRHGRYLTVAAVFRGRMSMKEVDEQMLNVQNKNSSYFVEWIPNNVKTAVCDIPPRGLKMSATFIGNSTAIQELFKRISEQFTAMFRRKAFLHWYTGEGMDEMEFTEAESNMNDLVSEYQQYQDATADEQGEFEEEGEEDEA
T1 sequence (P02550 whole entry partner): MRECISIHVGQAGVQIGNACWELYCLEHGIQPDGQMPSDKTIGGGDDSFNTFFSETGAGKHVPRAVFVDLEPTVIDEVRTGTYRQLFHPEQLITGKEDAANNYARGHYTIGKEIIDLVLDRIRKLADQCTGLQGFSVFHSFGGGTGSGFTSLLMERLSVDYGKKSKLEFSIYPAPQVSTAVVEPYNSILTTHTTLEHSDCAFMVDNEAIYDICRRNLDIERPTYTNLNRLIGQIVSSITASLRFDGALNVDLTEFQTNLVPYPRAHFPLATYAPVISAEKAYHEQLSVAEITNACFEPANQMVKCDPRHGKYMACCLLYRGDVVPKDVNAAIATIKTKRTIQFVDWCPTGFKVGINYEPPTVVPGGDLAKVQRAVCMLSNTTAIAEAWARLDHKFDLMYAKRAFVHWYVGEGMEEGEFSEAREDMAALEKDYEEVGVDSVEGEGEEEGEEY

COc1cc(-n2ccc3ccc(-c4ccc(C)c(C#N)c4)cc32)cc(OC)c1OC [3g, 2-methyl-5-(1-(3,4,5-trimethoxyphenyl)-1H-indol-6-yl)benzonitrile]
IC50 (A375 cells): 0.57 ± 0.01 µM | microtubule architecture [1]: progressive disruption | tumor growth inhibition (TGI) ([2]; 20 mg/kg i.p. once daily): 23.3% and 23.34% | tumor growth inhibition (TGI) ([2]; 50 mg/kg i.p. once daily): 44.2% and 44.18% | effect on tubulin assembly ([3]; 50 μM): markedly suppressed tubulin assembly | effect on tubulin polymerization ([3]; 2.5–50 μM, absorbance at 340 nm): inhibited tubulin polymerization in a concentration-dependent manner | IC50 (HeLa cells): 6.1 ± 0.31 µM
